According to patent US20250326749A1, “COMPOUNDS, COMPOSITIONS, AND METHODS OF USING THEREOF” (Sionna Therapeutics Inc., priority 2022, published 2025):

Target: T1, ΔF508-CFTR (Homo sapiens, UniProt P13569, DEL508-508)
T1 construct: expressed in transfected cells; host or cells: CFSMEo- (human CF submucosal gland epithelial cells, ΔF508/Q2X), transiently transfected by nucleofection
Assay: ΔF508-CFTR-HRP trafficking assay (cell surface expression of ΔF508-CFTR)
Assay type: cell-based
Details: CFSMEo- cells transiently transfected with ΔF508-CFTR-HRP; test agent 3 μM, 48 h; HRP chemiluminescence
Description: Test agents were screened for their effect on cell surface expression of ΔF508-CFTR using the ΔF508-CFTR-HRP trafficking assay. For this assay, a ΔF508-CFTR expression construct was designed with an in-frame insertion of a horseradish peroxidase (HRP) tag into the 4th extracellular loop of CFTR. The HRP tag would be presented extracellularly, in cells transiently transfected with the ΔF508-CFTR-HRP construct, following correction of the ΔF508-CFTR trafficking defect. The quantity of ΔF508-CFTR-HRP expressed on the plasma membrane could therefore be determined by measuring an HRP-dependent signal after the application of a cell-impermeable HRP substrate.
In brief, CF submucosal gland epithelial cells (CFSMEo-), derived from the airways of a CF patient (ΔF508/Q2X) and provided by Dr. Dieter Gruenert, University of California-San Francisco, were cultured at 37° C. with 5% CO2 in minimum essential medium (MEM) with Earle's salt and nonessential amino acids, supplemented with 10% (volume per volume [v/v]) fetal bovine serum, 2 mM L-glutamine and 1× (v/v) penicillin/streptomycin and grown in tissue culture-treated flasks coated with an extracellular matrix (ECM) cocktail consisting of 10 μg/mL human fibronectin, 30 μg/mL bovine collagen type I, and 100 μg/mL bovine serum albumin in LHC basal medium. These CFSMEo^− cells were transiently transfected with 4 μg of the ΔF508-CFTR-HRP expression construct using the Lonza 4D-Nucleofector Core unit (Lonza, Catalogue No. AAF-1002B) with the X unit (Lonza, Catalogue No. AAF-1002X) and SF Cell Line 4D-Nucleofector X Kit L (Lonza, Catalogue No. V4XC-2024) according to the manufacturer's instructions and plated at 1.2×10^4 cells/well onto collagen-coated, 96-well plates (Corning Inc.). Twenty-four h post-transfection, cells were treated with test agents, solubilized in DMSO at a concentration of 3 μM in replicates of 3, and allowed to incubate for 48 h. To detect HRP expression, cell culture media was removed, cells were washed with PBS and 100 μL of Luminata Forte HRP chemiluminescent substrate (EMD Millipore, Burlington, MA) was added to each well. Following a 5-minute incubation, chemiluminescence was measured in relative luminescent units (RLUs) using an EnVision plate reader (Perkin Elmer, Waltham, MA).
The ΔF508-CFTR-HRP trafficking data was normalized to the vehicle treated control (0.3% DMSO), followed by calculation of the mean, standard deviation, and standard error. If the test agent increased cell surface expression of ΔF508-CFTR-HRP relative to the vehicle-treated control, then that test agent was considered a ΔF508-CFTR corrector. Based on the description above, the biological activity of the examples in this disclosure is collected in Table 2.

T1 sequence (P13569 with tags, fused parts or gaps DEL508-508): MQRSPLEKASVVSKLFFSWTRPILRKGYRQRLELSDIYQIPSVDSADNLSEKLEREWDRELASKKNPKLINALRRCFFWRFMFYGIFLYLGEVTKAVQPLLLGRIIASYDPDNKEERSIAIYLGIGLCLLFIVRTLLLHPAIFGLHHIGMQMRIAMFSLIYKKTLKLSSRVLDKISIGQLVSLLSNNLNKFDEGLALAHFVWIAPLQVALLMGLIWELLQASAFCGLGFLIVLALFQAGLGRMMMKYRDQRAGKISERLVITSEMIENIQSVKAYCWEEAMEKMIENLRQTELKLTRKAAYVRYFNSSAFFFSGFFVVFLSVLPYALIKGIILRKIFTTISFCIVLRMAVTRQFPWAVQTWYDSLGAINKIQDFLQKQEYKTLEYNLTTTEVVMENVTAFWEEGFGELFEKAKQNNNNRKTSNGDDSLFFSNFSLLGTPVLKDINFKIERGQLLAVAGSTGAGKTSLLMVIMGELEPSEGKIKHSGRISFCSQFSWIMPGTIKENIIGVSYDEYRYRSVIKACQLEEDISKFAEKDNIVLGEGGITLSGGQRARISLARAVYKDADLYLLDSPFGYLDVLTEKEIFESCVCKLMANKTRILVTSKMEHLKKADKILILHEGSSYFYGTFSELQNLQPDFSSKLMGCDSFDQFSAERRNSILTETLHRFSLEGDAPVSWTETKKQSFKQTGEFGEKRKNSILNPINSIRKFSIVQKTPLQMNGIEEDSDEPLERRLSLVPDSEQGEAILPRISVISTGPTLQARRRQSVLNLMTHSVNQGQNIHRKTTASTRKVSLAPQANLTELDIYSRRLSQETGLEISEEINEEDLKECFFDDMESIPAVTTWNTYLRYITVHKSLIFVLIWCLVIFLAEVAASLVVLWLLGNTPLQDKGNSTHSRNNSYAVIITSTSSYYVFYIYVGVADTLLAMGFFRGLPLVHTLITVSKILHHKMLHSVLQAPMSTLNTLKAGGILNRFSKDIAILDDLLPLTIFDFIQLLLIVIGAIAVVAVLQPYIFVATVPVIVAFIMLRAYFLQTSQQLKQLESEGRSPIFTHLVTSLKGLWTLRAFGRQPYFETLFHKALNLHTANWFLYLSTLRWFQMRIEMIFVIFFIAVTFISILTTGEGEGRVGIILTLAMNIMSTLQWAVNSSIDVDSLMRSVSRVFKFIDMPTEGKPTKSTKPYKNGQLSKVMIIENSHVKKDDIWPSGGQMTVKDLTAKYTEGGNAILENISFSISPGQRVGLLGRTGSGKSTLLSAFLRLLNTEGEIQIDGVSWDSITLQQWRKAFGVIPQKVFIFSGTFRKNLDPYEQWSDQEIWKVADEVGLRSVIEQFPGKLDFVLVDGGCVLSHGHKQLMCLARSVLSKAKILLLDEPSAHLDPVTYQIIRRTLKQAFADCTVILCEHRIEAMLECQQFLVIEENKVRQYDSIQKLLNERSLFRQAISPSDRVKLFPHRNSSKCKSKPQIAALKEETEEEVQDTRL

| Compound | RLUs: ΔF508-CFTR-HRP trafficking data normalized to the vehicle treated control (0.3% DMSO) |
| --- | --- |
| C[C@H](Oc1cncc(-n2nc(C(F)(F)F)c3c2[C@H](CN2CCC(C(=O)O)CC2)CCC3)c1)c1ccc2c(c1)OC(F)(F)O2 (single isomer, unassigned) [124 (P2)] | B (RLU 3.5 μM-5.0 μM) |
| C[C@H](Oc1cc(-n2nc(C(F)(F)F)c3c2[C@@H](CN2CCC(C(=O)O)CC2)CCC3)ccn1)c1ccc2c(c1)OC(F)(F)O2 (single isomer, unassigned) [125 (P1)] | A (RLU 5.0 μM-10 μM) |
| C[C@H](Oc1cc(-n2nc(C(F)(F)F)c3c2[C@H](CN2CCC(C(=O)O)CC2)CCC3)ccn1)c1ccc2c(c1)OC(F)(F)O2 (single isomer, unassigned) [125 (P2)] | A (RLU 5.0 μM-10 μM) |
| C[C@@H](Oc1cc(-n2nc(C(F)(F)F)c3c2N(CC24CC(C(=O)O)(C2)C4)CCC3)cnn1)c1cc2c(cn1)OC(F)(F)O2 (single isomer, unassigned) [Example 1] | C (RLU 0.0 μM-3.5 μM) |
| C[C@H](Oc1cc(-n2nc(C(F)(F)F)c3c2N(CC24CC(C(=O)O)(C2)C4)CCC3)cnn1)c1cc2c(cn1)OC(F)(F)O2 (single isomer, unassigned) [Example 2] | C (RLU 0.0 μM-3.5 μM) |
| C[C@@H](Oc1cc(-n2nc(C(F)(F)F)c3c2N(Cc2ccc(C(=O)O)cc2)CCC3)cnn1)c1ccc2c(c1)OC(F)(F)O2 (single isomer, unassigned) [Example 3] | C (RLU 0.0 μM-3.5 μM) |
| C[C@H](Oc1cc(-n2nc(C(F)(F)F)c3c2N(Cc2ccc(C(=O)O)cc2)CCC3)cnn1)c1ccc2c(c1)OC(F)(F)O2 (single isomer, unassigned) [Example 4] | B (RLU 3.5 μM-5.0 μM) |
| C[C@@H](Oc1cc(-n2nc(C(F)(F)F)c3c2N(CC24CC(C(=O)O)(C2)C4)CCC3)cnn1)c1ccc2c(c1)OC(F)(F)O2 (single isomer, unassigned) [Example 5] | A (RLU 5.0 μM-10 μM) |
| C[C@H](Oc1cc(-n2nc(C(F)(F)F)c3c2N(CC24CC(C(=O)O)(C2)C4)CCC3)cnn1)c1ccc2c(c1)OC(F)(F)O2 (single isomer, unassigned) [Example 6] | C (RLU 0.0 μM-3.5 μM) |
| C[C@H](Oc1cc(-n2nc(C(F)(F)F)c3c2N(C[C@H]2CC[C@H](C(=O)O)CC2)CCC3)ccn1)c1ccc2c(c1)OC(F)(F)O2 (single isomer, unassigned) [Example 7] | A (RLU 5.0 μM-10 μM) |
| C[C@H](Oc1cc(-n2nc(C(F)(F)F)c3c2N(CC24CCC(C(=O)O)(CC2)CC4)CCC3)ccn1)c1ccc2c(c1)OC(F)(F)O2 (single isomer, unassigned) [Example 9] | A (RLU 5.0 μM-10 μM) |
| C[C@H](Oc1cncc(-n2nc(C(F)(F)F)c3c2N(Cc2ccc(C(=O)O)cc2)CCC3)c1)c1ccc2c(c1)OC(F)(F)O2 (single isomer, unassigned) [Example 12] | C (RLU 0.0 μM-3.5 μM) |
| C[C@H](Oc1cncc(-n2nc(C(F)(F)F)c3c2N(CC24CCC(C(=O)O)(CC2)CC4)CCC3)c1)c1ccc2c(c1)OC(F)(F)O2 (single isomer, unassigned) [Example 14] | A (RLU 5.0 μM-10 μM) |
| C[C@H](Oc1cccc(-n2nc(C(F)(F)F)c3c2N(C(=O)c2ccc(C(=O)O)cc2)CCC3)c1)c1ccc2c(c1)OC(F)(F)O2 (single isomer, unassigned) [Example 15] | B (RLU 3.5 μM-5.0 μM) |

The next lines start with the values.

| RLUs: ΔF508-CFTR-HRP trafficking data normalized to the vehicle treated control (0.3% DMSO) | Compound |
| --- | --- |
| C (RLU 0.0 μM-3.5 μM) | C[C@H](Oc1cncc(-n2nc(C(F)(F)F)c3c2N(C(=O)c2ccc(C(=O)O)cc2)CCC3)c1)c1ccc2c(c1)OC(F)(F)O2 (single isomer, unassigned) [Example 16] |
| C (RLU 0.0 μM-3.5 μM) | C[C@H](Oc1cncc(-n2nc(C(F)(F)F)c3c2N(C(=O)[C@H]2CC[C@H](C(=O)O)CC2)CCC3)c1)c1ccc2c(c1)OC(F)(F)O2 (single isomer, unassigned) [Example 17] |
| C (RLU 0.0 μM-3.5 μM) | C[C@H](Oc1cc(-n2nc(C(F)(F)F)c3c2[C@H](Oc2ccc(C(=O)O)cc2)CCC3)ccn1)c1ccc2c(c1)OC(F)(F)O2 (single isomer, unassigned) [Example 23] |
| B (RLU 3.5 μM-5.0 μM) | C[C@H](Oc1cccc(-n2nc(C(F)(F)F)c3c2[C@@H](Oc2ccc(C(=O)O)cc2)CCC3)c1)c1ccc2c(c1)OC(F)(F)O2 (single isomer, unassigned) [Example 25] |
| A (RLU 5.0 μM-10 μM) | C[C@H](Oc1cccc(-n2nc(C(F)(F)F)c3c2[C@H](Oc2ccc(C(=O)O)cc2)CCC3)c1)c1ccc2c(c1)OC(F)(F)O2 (single isomer, unassigned) [Example 26] |
| C (RLU 0.0 μM-3.5 μM) | C[C@H](Oc1cncc(-n2nc(C(F)(F)F)c3c2[C@@H](Oc2ccc(C(=O)O)cc2)CCC3)c1)c1ccc2c(c1)OC(F)(F)O2 (single isomer, unassigned) [Example 27] |
| A (RLU 5.0 μM-10 μM) | C[C@@H](Oc1cccc(-n2nc(C(F)(F)F)c3c2C(Oc2ccc(C(=O)O)cc2)CCC3)c1)c1ccc2c(c1)OC(F)(F)O2 (single isomer, unassigned) [Example 28] |
| B (RLU 3.5 μM-5.0 μM) | Cc1cc(OC2CCCc3c(C(F)(F)F)nn(-c4cccc(O[C@H](C)c5cc6c(cc5F)OC(F)(F)O6)c4)c32)ccc1C(=O)O (single isomer, unassigned) [Example 34] |
| C (RLU 0.0 μM-3.5 μM) | C[C@H](Oc1cc(-n2nc(C(F)(F)F)c3c2[C@@H](Oc2ccc(C(=O)O)cc2)CCC3)ccc1F)c1ccc2c(c1)OC(F)(F)O2 (single isomer, unassigned) [Example 36] |
| A (RLU 5.0 μM-10 μM) | C[C@H](Oc1cc(-n2nc(C(F)(F)F)c3c2[C@@H](Oc2ccc(C(=O)O)cc2)CCC3)ccn1)c1cc2c(cc1F)OC(F)(F)O2 (single isomer, unassigned) [Example 36a] |
| A (RLU 5.0 μM-10 μM) | C[C@H](Oc1ccnc(-n2nc(C(F)(F)F)c3c2[C@@H](Oc2ccc(C(=O)O)cc2)CCC3)c1)c1ccc2c(c1)OC(F)(F)O2 (single isomer, unassigned) [Example 36b] |
| B (RLU 3.5 μM-5.0 μM) | C[C@H](Oc1cccc(-n2nc(C(F)(F)F)c3c2[C@@H](Oc2ccc(C(=O)O)cc2)CCC3)n1)c1ccc2c(c1)OC(F)(F)O2 (single isomer, unassigned) [Example 36c] |
| B (RLU 3.5 μM-5.0 μM) | C[C@H](Oc1cc(-n2nc(C(F)(F)F)c3c2[C@@H](Oc2ccc(C(=O)O)cc2)CCC3)cnc1F)c1cc2c(cc1F)OC(F)(F)O2 (single isomer, unassigned) [Example 36d] |
| A (RLU 5.0 μM-10 μM) | C[C@H](Oc1cncc(-n2nc(C(F)(F)F)c3c2[C@@H](Oc2ccc(C(=O)O)cc2)CCC3)c1)c1cc2c(cc1F)OC(F)(F)O2 (single isomer, unassigned) [Example 36e] |
| A (RLU 5.0 μM-10 μM) | C[C@H](Oc1nc(-n2nc(C(F)(F)F)c3c2[C@@H](Oc2ccc(C(=O)O)cc2)CCC3)ccc1F)c1ccc2c(c1)OC(F)(F)O2 (single isomer, unassigned) [Example 36f] |
| B (RLU 3.5 μM-5.0 μM) | C[C@H](Oc1cccc(-n2nc(C(F)(F)F)c3c2[C@@H](Oc2ccc(C(=O)O)cc2)CCC3)c1)c1cc2c(cc1F)OC(F)(F)O2 (single isomer, unassigned) [Example 36g] |
